Measurements: patent US20130165455A1, “TLR AGONISTS” (The Regents of The University of California, priority 2005, published 2013)

Tested on: C57BL/6 mice
Assay: Serum cytokine levels in C57BL/6 mice after i.v. injection (Luminex)
Assay type: in vivo
Settings: 0.1 micromole SM-360320 or equivalent amount UC-1V150/MSA (500 μg MSA per mouse), FIG. 5
Protocol: FIGS. 5A, 5B, 5C, and 5D illustrate the increased potency and duration of effect of UC-1V150/MSA. C57BL/6 mice were injected (i.v.) with (A) 0.1 micromole of SM-360320, a TLR7 ligand, or (B) equivalent amount of a TLR7 agonist UC-1V150 (aldehyde-modified SM-360320) or UC-1V150/MSA to 500 μg MSA per mouse. Serum samples were collected at the indicated time points and cytokine levels were analyzed by Luminex. MSA=mouse serum albumin. The effect from the original TLR7 ligand, SM-360320, lasted for only 2 hours whereas UC-1V150/MSA has extended the effect to at least 6 hours.
FIGS. 7A and 7B illustrates an increased potency of UC-1V150/MSA. C57BL/6 mice were i.v. injected with 380 nmole of SM-360320 or UC-1V150, or 500 μg of UC-1V150/MSA (equivalent to 3.8 nmole UC-1V150) per mouse. Serum samples were collected after 2 h and cytokine levels were analyzed by Luminex. To achieve the similar effect, at least 100-fold higher concentration of either UC-1V150 or SM-360320 was required as compared to that of UC-1V150/MSA.

SMILES: COCCOc1nc(N)c2[nH]c(=O)n(Cc3ccccc3)c2n1 [SM-360320]
- duration of effect (serum cytokine levels): 2 h
